Assay results published in paper PMC11963559, “Identification of novel thiazole derivatives as flaviviral protease inhibitors effective against Dengue (DENV2) and Japanese encephalitis viruses” (Antimicrobial Agents and Chemotherapy, 2025).

Biological target: T1, DENV2 NS2B–NS3 protease (Dengue virus type 2, UniProt P14340)
T1 construct: Activity of recombinant dengue 2 virus NS3 protease in the presence of a truncated NS2B co-factor; The N-terminal domain of NS3 contains a highly conserved protease-active core; made in house; host or cells: Escherichia coli BL21(DE3)
T1 sequence (P14340 1476-1653): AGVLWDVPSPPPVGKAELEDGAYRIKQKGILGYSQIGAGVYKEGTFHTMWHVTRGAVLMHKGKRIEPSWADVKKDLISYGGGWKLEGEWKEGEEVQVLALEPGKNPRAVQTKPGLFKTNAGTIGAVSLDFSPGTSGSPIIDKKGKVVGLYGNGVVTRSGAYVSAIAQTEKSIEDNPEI
T1 sequence (P14340 1398-1437): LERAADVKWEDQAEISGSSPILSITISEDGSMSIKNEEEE
Test: In vitro DENV2 NS2B/NS3pro inhibition assay using a FRET substrate
Type: biochemical
Settings: for IC50: IC50 (µM)
Procedure: To assess the anti-DENV NS2B–NS3 activity of the compounds, we expressed the DENV2 NS2B–NS3 protease in BL21DE3 cells and subsequently purified it using Ni-NTA affinity chromatography, as outlined in Materials and Methods ([39], [40]). The protease activity assay was performed using different concentrations (1, 2.5, 5, 10, 25, 50, 75, and 100 µM) of a fluorogenic substrate (Abs-Nle-Lys-Arg-Arg-Ser-3-(NO2)Tyr) at various time points (5, 15, 30, 45, and 60 min), as described previously ([39], [41]). […] Therefore, all subsequent assays were conducted with a 1 h incubation time.
The selected compounds were analyzed using in vitro protease assays performed in black 96-well plates. […] All assays were performed in triplicate. The release of free AMC was measured using a Varioskan LUX multimode microplate reader (Thermo Fisher Scientific) at excitation and emission wavelengths of 380 and 460 nm, respectively. Control fluorescence values obtained in the absence of inhibitors were considered 100%, and those obtained in the presence of inhibitors were calculated as the percentage of inhibition of the control using Microsoft Excel and plotted using Origin Pro 2023b. The background AMC in the absence of protease was subtracted before data analysis. Further, protease assay was done using different concentration of the compounds (1, 10, and 100 µM) to evaluate the IC50 for the in vitro assay. IC50 curves were fitted and determined by fitting the nonlinear equation in Origin2023b software. A similar approach was used to analyze the enzymatic kinetics of protease inhibition. The reaction progress was monitored by the release of free aminomethylcoumarin (AMC), as previously described. The substrate was incubated with or without the inhibitor in the aforementioned reaction buffer in the presence of varying concentrations of the substrate. The reactions were initiated by the addition of the NS2B–NS3 protease. Protease activity was monitored for 1 h based on the initial rate of increase in fluorescence intensity at 460 nm, with an excitation wavelength of 380 nm. The results were analyzed using Origin Pro 2023b and the Michaelis–Menten equation to obtain the apparent Michaelis–Menten constants and maximal velocities. All assays were performed in triplicate. For each tested compound, two different concentrations of the inhibitor (0, 10, and 25 µM) were used at various concentrations (0–250 μM) of the substrate. The mechanism of inhibition was determined by observing the deviations in the apparent Km and Vmax values.

[1] = DENV protease inhibitory activity, 5 µM substrate, 10 nM NS2b-NS3pro, compounds at 1, 10 and 100 µM, 1 h at RT, compounds 3ao–3av
[2] = DENV protease inhibitory activity, 5 µM substrate, 10 nM NS2b-NS3pro, compounds at 1, 10 and 100 µM, 1 h at RT, compounds 3s-3an
[3] = DENV2 NS2B–NS3 protease inhibitory activity, 5 µM substrate, 10 nM NS2b-NS3pro, compounds at 1, 10 and 100 µM, 1 h at RT, compounds 3a-3r

| SMILES | IC50 [2] [µM] | IC50 [3] [µM] | other results |
| --- | --- | --- | --- |
| C/C(=N\Nc1nc(-c2ccccc2)cs1)c1cc(O)cc(O)c1 [3as] | – | – | IC50 [1]: > 100 µM |
| C/C(=N\Nc1nc(-c2cccc([N+](=O)[O-])c2)cs1)c1ccc(C)cc1 [3t] | 113 | – | – |
| COc1cccc(/C(C)=N/Nc2nc(-c3cccc([N+](=O)[O-])c3)cs2)c1 [3x] | 387 | – | – |
| COc1ccc(OC)c(/C(C)=N/Nc2nc(-c3ccc(Cl)cc3)cs2)c1 [3ak] | 124 | – | – |
| C/C(=N\Nc1nc(-c2ccc(C)cc2)cs1)c1cc(O)cc(O)c1 [3at] | – | – | IC50 [1]: 27.7 µM |
| C/C(=N\Nc1nc(-c2cccc([N+](=O)[O-])c2)cs1)c1ccc(F)cc1 [3ad] | > 100 | – | – |
| COc1ccc(/C=N/Nc2nc(-c3cccc([N+](=O)[O-])c3)cs2)cc1OC [3e] | – | 502 | – |
| Cc1cc(C)cc(/C=N/Nc2nc(-c3ccc(Cl)cc3)cs2)c1 [3k] | – | > 100 | – |
| C/C(=N\Nc1nc(-c2ccc(F)cc2)cs1)c1cc(O)cc(O)c1 [3av] | – | – | IC50 [1]: 37.1 µM |
| COc1ccc(/C=N/Nc2nc(-c3ccc(Cl)cc3)cs2)cc1OC [3n] | – | 248 | – |
| C/C(=N\Nc1nc(-c2ccc(Cl)cc2)cs1)c1ccc(O)cc1 [3af] | 144 | – | – |
| COc1ccc(OC)c(/C=N/Nc2nc(-c3cccc([N+](=O)[O-])c3)cs2)c1 [3d] | – | 139 | – |
| C/C(=N\Nc1nc(-c2cccc([N+](=O)[O-])c2)cs1)c1ccc(O)cc1 [3u] | 28.7 | – | – |
| COc1ccccc1/C=N/Nc1nc(-c2ccc(Cl)cc2)cs1 [3l] | – | > 100 | – |
| C/C(=N\Nc1nc(-c2cccc([N+](=O)[O-])c2)cs1)c1cc(O)cc(O)c1 [3v] | 27.4 | – | – |
| COc1ccc(/C(C)=N/Nc2nc(-c3ccc(Cl)cc3)cs2)cc1OC [3al] | 156 | – | – |
| C/C(=N\Nc1nc(-c2ccc(Cl)cc2)cs1)c1cc(O)cc(O)c1 [3ag] | 92.3 | – | – |
| COc1ccccc1/C=N/Nc1nc(-c2cccc([N+](=O)[O-])c2)cs1 [3c] | – | 229 | – |
| C/C(=N\Nc1nc(-c2ccc(F)cc2)cs1)c1ccc(O)cc1 [3ar] | – | – | IC50 [1]: 250 µM |
| C/C(=N\Nc1nc(-c2ccc(Cl)cc2)cs1)c1ccc(C)cc1 [3ae] | > 100 | – | – |
| Clc1ccc(-c2csc(N/N=C/c3ccccc3Br)n2)cc1 [3q] | – | > 100 | – |
| COc1ccc(/C(C)=N/Nc2nc(-c3cccc([N+](=O)[O-])c3)cs2)c(OC)c1 [3z] | 171 | – | – |

| SMILES | IC50 [2] [µM] | IC50 [3] [µM] | other results |
| --- | --- | --- | --- |
| COc1ccc(/C(C)=N/Nc2nc(-c3ccc(Cl)cc3)cs2)cc1 [3ai] | 399 | – | – |
| COc1ccc(OC)c(/C(C)=N/Nc2nc(-c3cccc([N+](=O)[O-])c3)cs2)c1 [3aa] | > 100 | – | IC50 (µM), DENV protease inhibitory activity (5 µM substrate, 10 nM NS2b-NS3pro, compounds at 1, 10 and 100 µM, 1 h at RT, compounds 3s-3an): completely lost its activity |
| Cc1ccc(/C=N/Nc2nc(-c3cccc([N+](=O)[O-])c3)cs2)cc1 [3a] | – | > 100 | – |
| Fc1ccccc1/C=N/Nc1nc(-c2ccc(Cl)cc2)cs1 [3o] | – | > 100 | – |
| Cc1ccc(/C=N/Nc2nc(-c3ccc(Cl)cc3)cs2)cc1 [3j] | – | 603 | – |
| COc1ccc(/C(C)=N/Nc2nc(-c3ccc(Cl)cc3)cs2)c(OC)c1 [3aj] | > 100 | – | – |
| O=[N+]([O-])c1cccc(-c2csc(N/N=C/c3ccccc3Br)n2)c1 [3h] | – | 342 | – |
| COc1cccc(/C(C)=N/Nc2nc(-c3ccc(Cl)cc3)cs2)c1 [3ah] | 263 | – | – |
| Cc1cc(C)cc(/C=N/Nc2nc(-c3cccc([N+](=O)[O-])c3)cs2)c1 [3b] | – | > 100 | – |
| C/C(=N\Nc1nc(-c2ccccc2)cs1)c1ccc(O)cc1 [3ao] | – | – | IC50 [1]: 114 µM |
| O=[N+]([O-])c1cccc(-c2csc(N/N=C/c3cccc(Cl)c3)n2)c1 [3g] | – | 299 | – |
| O=[N+]([O-])c1cccc(-c2csc(N/N=C/c3ccccc3F)n2)c1 [3f] | – | 117 | – |
| O=[N+]([O-])c1cccc(-c2csc(N/N=C/c3cccc(Br)c3)n2)c1 [3i] | – | 413 | – |
| COc1ccc(/C(C)=N/Nc2nc(-c3cccc([N+](=O)[O-])c3)cs2)cc1OC [3ab] | 31.4 | – | fold improvement in potency in comparison with 3e (protease IC50, -H replaced by -CH3 at R1): ~ 16 fold |
| C/C(=N\Nc1nc(-c2ccc(Cl)cc2)cs1)c1ccc(F)cc1 [3an] | > 100 | – | – |
| C/C(=N\Nc1nc(-c2cccc([N+](=O)[O-])c2)cs1)c1ccc(Cl)cc1 [3ac] | > 100 | – | – |
| COc1ccc(/C(C)=N/Nc2nc(-c3cccc([N+](=O)[O-])c3)cs2)cc1 [3y] | 328 | – | – |
| C/C(=N\Nc1nc(-c2ccc(C)cc2)cs1)c1ccc(O)cc1 [3ap] | – | – | IC50 [1]: 56 µM |
| Clc1ccc(-c2csc(N/N=C/c3cccc(Cl)c3)n2)cc1 [3p] | – | > 100 | – |
| COc1ccc(OC)c(/C=N/Nc2nc(-c3ccc(Cl)cc3)cs2)c1 [3m] | – | 216 | – |
| Clc1ccc(-c2csc(N/N=C/c3cccc(Br)c3)n2)cc1 [3r] | – | > 100 | – |
| COc1ccccc1/C(C)=N/Nc1nc(-c2cccc([N+](=O)[O-])c2)cs1 [3w] | 193 | – | – |
